The source of these data is PubChem BioAssay AID330 (DTP/NCI, 2004).

Several values for one entry are separate records, joined by “and”; a condition that tells them apart may be missing. Equal entries are not always repeated. Inconclusive results and toxic doses are left out.

The assay deals with P388 leukemia ip, CD2F1 mice, survival T/C. In words: NCI In Vivo Anticancer Drug Screen. Data for tumor model P388 Leukemia (intraperitoneal) in CD2F1 (CDF1) mice. As to conditions: endpoint: median survival time, higher = longer survival. Summed up: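 Mice carrying the transplanted tumor received test compound or vehicle. Survival was recorded in each group, and the value is the treated-group measurement divided by that of the vehicle-treated control group.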

Setting [1] is: dose: 6.25 mg/kg/injection, schedule: Q01DX009 (ip), vehicle: saline with Tween-80.
The mark [2] stands for this setting: dose: 12.5 mg/kg/injection, schedule: Q01DX009 (ip), vehicle: saline with Tween-80.
The mark [3] stands for this setting: dose: 3.12 mg/kg/injection, schedule: Q01DX005 (ip), vehicle: Klucel (hydroxypropylcellulose) (HPC).
[4] abbreviates: dose: 6.25 mg/kg/injection, schedule: Q01DX005 (ip), vehicle: Klucel (hydroxypropylcellulose) (HPC).
The mark [5] stands for this setting: dose: 12.5 mg/kg/injection, schedule: Q01DX005 (ip), vehicle: Klucel (hydroxypropylcellulose) (HPC).
The mark [6] stands for this setting: dose: 25.0 mg/kg/injection, schedule: Q01DX005 (ip), vehicle: Klucel (hydroxypropylcellulose) (HPC).
Setting [7] is: dose: 50.0 mg/kg/injection, schedule: Q01DX009 (ip), vehicle: saline.
The mark [8] stands for this setting: dose: 100.0 mg/kg/injection, schedule: Q01DX009 (ip), vehicle: saline.
Setting [9] is: dose: 200.0 mg/kg/injection, schedule: Q01DX009 (ip), vehicle: saline.

With `O=[N+]([O-])/C(=C/c1ccccc1)c1ccccc1`, the T/C under setting [1] was 109 % of control; the T/C (dose: 6.25 mg/kg/injection, schedule: Q04DX003 (ip), vehicle: saline with Tween-80) was 109 % of control; the T/C under setting [2] was 118 % of control; the T/C (dose: 12.5 mg/kg/injection, schedule: Q04DX003 (ip), vehicle: saline with Tween-80) was 100 % of control; the T/C (dose: 25.0 mg/kg/injection, schedule: Q01DX009 (ip), vehicle: saline with Tween-80) was 118 % of control; the T/C (dose: 25.0 mg/kg/injection, schedule: Q04DX003 (ip), vehicle: saline with Tween-80) was 113 % of control.
Turning to `O=c1nc2n(CC(O)C(O)C(O)C(O)CO)c3ccc(Cl)cc3nc-2c(=O)[nH]1` (stereo unspecified), the T/C runs as follows: (dose: 50.0 mg/kg/injection, schedule: Q01DX005 (ip), vehicle: saline) 104 % of control; (dose: 100.0 mg/kg/injection, schedule: Q01DX005 (ip), vehicle: saline) 104 % of control; (dose: 200.0 mg/kg/injection, schedule: Q01DX005 (ip), vehicle: saline) 104 % of control.
Consider `CC1(C)CC(OP(=[Se])(OC2CC(C)(C)N(O)C(C)(C)C2)OC2CC(C)(C)N(O)C(C)(C)C2)CC(C)(C)N1O`, for which the T/C runs as follows: (dose: 12.5 mg/kg/injection, schedule: Q01DX001 (ip), vehicle: Klucel (hydroxypropylcellulose) (HPC)) 97 % of control; (dose: 25.0 mg/kg/injection, schedule: Q01DX001 (ip), vehicle: Klucel (hydroxypropylcellulose) (HPC)) 102 % of control; (dose: 50.0 mg/kg/injection, schedule: Q01DX001 (ip), vehicle: Klucel (hydroxypropylcellulose) (HPC)) 104 % of control.
With `CCCCCCCCCCCCNC(=O)c1ccc[n+](Cc2ccc(Cl)c(Cl)c2)c1`, the T/C runs as follows: (dose: 3.13 mg/kg/injection, schedule: Q01DX009 (ip), vehicle: saline with Tween-80) 100 % of control; under setting [1], 95 % of control; under setting [2], 100 % of control.
Consider `CCN(CC)CCCCNC(=O)c1noc2cc([N+](=O)[O-])ccc12`, for which the T/C was 100 % of control under setting [3]; 99 % of control and 105 % of control under setting [4]; 103 % of control and 97 % of control under setting [5]; 103 % of control and 122 % of control and 96 % of control under setting [6].
Regarding `COc1cc([C@@H]2c3cc4c(cc3[C@H](O)[C@H]3COC(=O)[C@H]23)OCO4)cc(OC)c1OC`, the T/C is 121 % of control (dose: 0.5 mg/kg/injection, schedule: Q01DX005 (ip), vehicle: Klucel (hydroxypropylcellulose) (HPC)); 117 % of control (dose: 1.0 mg/kg/injection, schedule: Q01DX005 (ip), vehicle: Klucel (hydroxypropylcellulose) (HPC)); 118 % of control (dose: 1.0 mg/kg/injection, schedule: Q01DX005 (ip), vehicle: saline with Tween-80); 121 % of control (dose: 2.0 mg/kg/injection, schedule: Q01DX005 (ip), vehicle: saline with Tween-80); 152 % of control (dose: 8.0 mg/kg/injection, schedule: Q01DX005 (ip), vehicle: Klucel (hydroxypropylcellulose) (HPC)).
Turning to `CNc1nc2cc(OC)c(OC)cc2c(=O)[nH]1`, the T/C reads like this: (dose: 15.0 mg/kg/injection, schedule: Q01DX005 (ip), vehicle: saline with Tween-80) 98 % of control; (dose: 30.0 mg/kg/injection, schedule: Q01DX005 (ip), vehicle: saline with Tween-80) 94 % of control; (dose: 60.0 mg/kg/injection, schedule: Q01DX005 (ip), vehicle: saline with Tween-80) 91 % of control and 98 % of control; (dose: 120.0 mg/kg/injection, schedule: Q01DX005 (ip), vehicle: saline with Tween-80) 100 % of control.
For `O=c1ccocc1OC1OC(CO)C(O)C(O)C1O` (stereo unspecified), the T/C reads like this: (dose: 5.75 mg/kg/injection, schedule: Q01DX005 (ip), vehicle: saline) 95 % of control; (dose: 11.5 mg/kg/injection, schedule: Q01DX005 (ip), vehicle: saline) 113 % of control; (dose: 23.0 mg/kg/injection, schedule: Q01DX005 (ip), vehicle: saline) 106 % of control; (dose: 46.0 mg/kg/injection, schedule: Q01DX005 (ip), vehicle: saline) 105 % of control.
For the compound `CCCCCCCCCCCCSC1=CC(=O)C(OC)=C(OC)C1=O`, the T/C is, setting by setting: (dose: 0.78 mg/kg/injection, schedule: Q01DX009 (ip), vehicle: other) 101 % of control; (dose: 1.56 mg/kg/injection, schedule: Q01DX009 (ip), vehicle: other) 108 % of control; (dose: 3.13 mg/kg/injection, schedule: Q01DX009 (ip), vehicle: other) 102 % of control; (dose: 6.25 mg/kg/injection, schedule: Q01DX009 (ip), vehicle: other) 108 % of control; (dose: 6.25 mg/kg/injection, schedule: Q01DX030 (ip), vehicle: saline with Tween-80) 101 % of control; (dose: 10.0 mg/kg/injection, schedule: Q01DX030 (ip), vehicle: saline with Tween-80) 108 % of control. The T/C was 110 % of control (dose: 12.5 mg/kg/injection, schedule: Q01DX009 (ip), vehicle: other); 104 % of control and 108 % of control and 121 % of control (dose: 12.5 mg/kg/injection, schedule: Q01DX030 (ip), vehicle: saline with Tween-80); 118 % of control (dose: 25.0 mg/kg/injection, schedule: Q01DX009 (ip), vehicle: other); 105 % of control (dose: 25.0 mg/kg/injection, schedule: Q01DX030 (ip), vehicle: saline with Tween-80).
On to `CCC1(O)CC2CN(CCc3c([nH]c4ccccc34)C(C(=O)OC)(c3cc4c(cc3OC)N(C=O)C3C(O)(C(=O)OC)CC5(CC)C=CCN6CCC43C65)C2)C1` (stereo unspecified), for which the T/C was 155 % of control and 160 % of control (dose: 1.0 mg/kg/injection, schedule: Q01DX001 (ip), vehicle: saline); 158 % of control and 160 % of control (dose: 2.0 mg/kg/injection, schedule: Q01DX001 (ip), vehicle: saline); 180 % of control and 185 % of control (dose: 4.0 mg/kg/injection, schedule: Q01DX001 (ip), vehicle: saline); 205 % of control and 220 % of control (dose: 8.0 mg/kg/injection, schedule: Q01DX001 (ip), vehicle: saline); 255 % of control (dose: 16.0 mg/kg/injection, schedule: Q01DX001 (ip), vehicle: saline).
On to `COP(=O)(Cc1ccccc1O)OC`, for which the T/C reads like this: under setting [7], 97 % of control; under setting [8], 99 % of control; under setting [9], 96 % of control.
Regarding `CCCCOc1ccc(C(=S)NC(=O)Nc2ccccc2)cc1`, the T/C is 123 % of control (dose: 3.0 mg/kg/injection, schedule: Q01DX009 (ip), vehicle: saline with Tween-80); 103 % of control (dose: 6.0 mg/kg/injection, schedule: Q01DX009 (ip), vehicle: saline with Tween-80); 98 % of control (dose: 12.0 mg/kg/injection, schedule: Q01DX009 (ip), vehicle: saline with Tween-80).
In the case of `CN(C)C1C(=O)C(C(=O)NP(=O)(NCCCO)N(CCCl)CCCl)=C(O)C2(O)C(=O)C3=C(O)c4c(O)cccc4C(C)(O)C3CC12` (stereo unspecified), the T/C runs as follows: (dose: 0.25 mg/kg/injection, schedule: Q01DX005 (ip), vehicle: saline) 92 % of control; (dose: 0.5 mg/kg/injection, schedule: Q01DX005 (ip), vehicle: saline) 102 % of control; (dose: 1.0 mg/kg/injection, schedule: Q01DX005 (ip), vehicle: saline) 104 % of control; (dose: 2.0 mg/kg/injection, schedule: Q01DX005 (ip), vehicle: saline) 100 % of control; (dose: 3.13 mg/kg/injection, schedule: Q04DX003 (ip), vehicle: saline) 98 % of control; (dose: 4.0 mg/kg/injection, schedule: Q01DX005 (ip), vehicle: saline) 101 % of control. The T/C was 102 % of control (dose: 6.25 mg/kg/injection, schedule: Q04DX003 (ip), vehicle: saline); 101 % of control (dose: 8.0 mg/kg/injection, schedule: Q01DX005 (ip), vehicle: saline); 103 % of control (dose: 12.5 mg/kg/injection, schedule: Q04DX003 (ip), vehicle: saline); 107 % of control (dose: 25.0 mg/kg/injection, schedule: Q04DX003 (ip), vehicle: saline); 108 % of control (dose: 50.0 mg/kg/injection, schedule: Q04DX003 (ip), vehicle: saline).
Regarding `CC(=O)NC(Cc1cccs1)C(=O)O` (stereo unspecified), the T/C runs as follows: under setting [7], 93 % of control; under setting [8], 101 % of control; under setting [9], 101 % of control.
As to `Cc1c(-c2ccc(C3CCCCC3)cc2)nc2ccc(F)cc2c1C(=O)O`, the T/C was 104 % of control under setting [3], 99 % of control under setting [4], 110 % of control under setting [5] and 99 % of control under setting [6].
